Laboratory results as given in patent US20090118286A1, “Heterobicyclic Acrylamides” (Bayer Cropscience AG, priority 2005, published 2009).

Experiment: log P determination by HPLC (EEC Directive 79/831 Annex V.A8, gradient method)
Assay type: physicochemical

CC(C)(C)NC(=O)/C=C/c1c(-c2ccc(F)cc2)nc2sc(C(F)(F)F)nn12 [Example 0302]
Physical data: log P: 3.81

O=C(O)/C=C/c1c(-c2ccc(F)cc2Cl)nc2sc(C(F)(F)C(F)(F)F)nn12 [VA114]
Physical data (logP): 3.31

COCc1nn2c(/C=C/C(=O)NC(C)C)c(-c3ccccc3Cl)nc2s1 [Example 0824]
Physical data: logP: 2.4

Cc1cn2c(/C=C/C(=O)Nc3ccc(OC(F)(F)F)cc3)c(-c3ccccc3Cl)nc2s1 [Example 0878]
Physical data: logP: 3.9

CC(C)(C)CNC(=O)/C=C/c1c(-c2ccccc2Cl)nc2sc(-c3ccc(C(F)(F)F)cc3)nn12 [Example 0841]
Physical data: logP: 4.68

Cc1ccccc1-c1nc2sc(C(F)(F)F)nn2c1/C=C/C(=O)NCC1CC1 [Example 0237]
Physical data: log P: 3.37

CC(C)C(C)NC(=O)/C=C/c1c(-c2cccc(C(F)(F)F)c2)nc2sc(C(F)(F)F)nn12 (stereo not drawn) [Example 0387]
Physical data: log P: 4.46

O=Cc1c(-c2ccccc2Cl)nc2sc(C(F)(F)C(F)(F)F)nn12 [IVA111]
Physical data (logP): 3.47

CC(NC(=O)/C=C/c1c(-c2ccc(Cl)cc2)nc2sc(C(F)(F)F)nn12)c1ccccn1 (stereo not drawn) [Example 0052]
Physical data (logP): 2.77

COc1ccc(-c2nc3sc(C(F)(F)F)nn3c2/C=C/C(=O)NOC(C)c2ccccc2)cc1OC (stereo not drawn) [Example 0708]
Physical data: logP: 3.37

COCc1nn2c(/C=C/C(=O)NCCC(C)C)c(-c3ccccc3Cl)nc2s1 [Example 0820]
Physical data: logP: 3.12

Cc1ccccc1-c1nc2sc(C(F)(F)F)nn2c1/C=C/C(=O)NC1CCCCC1 [Example 0236]
Physical data: log P: 4.03

Cc1cn2c(/C=C/C(=O)NCC(C)(C)C)c(-c3ccccc3Cl)nc2s1 [Example 0863]
Physical data: logP: 2.89

O=C(/C=C/c1c(-c2ccc(F)cc2Cl)nc2sc(C(F)(F)F)nn12)N1CCCC(C(F)(F)F)C1 (stereo not drawn) [Example 0648]
Physical data: logP: 4.28

Cc1cn2c(/C=C/C(=O)NC3CC3)c(-c3ccccc3Cl)nc2s1 [Example 0873]
Physical data: logP: 2.02

CC(C)(C)NC(=O)/C=C/c1c(-c2ccccc2Cl)nc2sc(C(F)(F)F)nn12 [Example 0150]
Physical data (logP): 3.72

COCc1nn2c(/C=C/C(=O)NCC(C)(C)C)c(-c3ccccc3Cl)nc2s1 [Example 0819]
Physical data: logP: 3.05

Cc1cn2c(/C=C/C(=O)NC3CCCC3)c(-c3ccccc3Cl)nc2s1 [Example 0875]
Physical data: logP: 2.7

O=C(/C=C/c1c(-c2cccc(Cl)c2)nc2sc(C(F)(F)F)nn12)NC1CCC1 [Example 0083]
Physical data (logP): 3.85

COc1ccc(-c2nc3sc(C(F)(F)F)nn3c2/C=C/C(=O)NC(C)c2ccccc2)cc1OC (stereo not drawn) [Example 0683]
Physical data: logP: 3.5

CON(C)C(=O)/C=C/c1c(-c2cccc(C(F)(F)F)c2)nc2sc(C(F)(F)F)nn12 [Example 0433]
Physical data: log P: 4.01

CCC(C)NC(=O)/C=C/c1c(-c2cccc(Cl)c2)nc2sc(C(F)(F)F)nn12 (stereo not drawn) [Example 0087]
Physical data (logP): 3.99

CC(NC(=O)/C=C/c1c(-c2ccccc2Cl)nc2sc(C(F)(F)C(F)(F)F)nn12)C(F)(F)F (racemic) [Example 0961]
Physical data: logP: 4.07

O=C(O)/C=C/c1c(-c2ccc(-c3ccccc3)cc2)nc2sc(C(F)(F)F)nn12 [VA120]
Physical data (logP): 3.77

Cc1cn2c(/C=C/C(=O)NCC(F)(F)F)c(-c3ccccc3Cl)nc2s1 [Example 0866]
Physical data: logP: 2.64

C=CCN(C)C(=O)/C=C/c1c(-c2cccc(Cl)c2)nc2sc(C(F)(F)F)nn12 [Example 0137]
Physical data (logP): 4.0

CCCC(C)NC(=O)/C=C/c1c(-c2ccc(F)cc2)nc2sc(C(F)(F)F)nn12 (stereo not drawn) [Example 0310]
Physical data: log P: 3.9

CCC(C)NC(=O)/C=C/c1c(-c2ccc(Cl)cc2)nc2sc(C(F)(F)F)nn12 (stereo not drawn) [Example 0016]
Physical data (logP): 3.94

COCC(C)NC(=O)/C=C/c1c(-c2ccccc2C)nc2sc(C(F)(F)F)nn12 (racemic) [Example 0240]
Physical data: log P: 3.07

CC(C)CCNC(=O)/C=C/c1c(-c2ccccc2Cl)nc2sc(C(C)(C)C)nn12 [Example 0798]
Physical data: logP: 4.11

O=C(C=Cc1c(-c2ccccc2Cl)nc2sc(C(F)(F)F)nn12)NC(c1ccc(Cl)cc1)C(F)(F)F (stereo not drawn) [Example 0919]
Physical data: logP: 4.71

CC(COc1ccccc1)NC(=O)/C=C/c1c(-c2cccc(C(F)(F)F)c2)nc2sc(C(F)(F)F)nn12 (stereo not drawn) [Example 0407]
Physical data: log P: 4.67

O=C(O)/C=C/c1c(-c2ccc(Cl)cc2Cl)nc2sc(C(F)(F)F)nn12 [VA-1, (2E)-3-[6-(2,4-Dichlorophenyl)-2-(trifluoromethyl)imidazo[2,1-b][1,3,4]thiadiazol-5-yl]acrylic Acid]
chromatographic logP (HPLC gradient method, acetonitrile/0.1% strength aqueous phosphoric acid or formic acid, preparation examples, read-out: log P): 3.15

O=C(O)/C=C/c1c(-c2sccc2Cl)nc2sc(C(F)(F)F)nn12 [VA126]
Physical data (logP): 2.72

O=C(/C=C/c1c(-c2ccccc2Cl)nc2sc(-c3ccc(C(F)(F)F)cc3)nn12)NCC(F)(F)C(F)(F)F [Example 0858]
Physical data: logP: 4.62

CC(C)(C)c1nn2c(/C=C/C(=O)NCC(F)(F)F)c(-c3ccccc3Cl)nc2s1 [Example 0800]
Physical data: logP: 3.61

COc1ccc(-c2nc3sc(C(F)(F)F)nn3c2/C=C/C(=O)NC(C)C(F)(F)F)cc1OC (stereo not drawn) [Example 0669]
Physical data: logP: 3.29

O=C(/C=C/c1c(-c2ccc(F)cc2)nc2sc(C(F)(F)F)nn12)N1CCCCC1 [Example 0364]
Physical data: log P: 3.85

O=Cc1c(-c2sccc2Cl)nc2sc(C(F)(F)F)nn12 [IVA124]
Physical data (logP): 2.92

COCc1nn2c(/C=C/C(=O)NCC(F)(F)C(F)(F)F)c(-c3ccccc3Cl)nc2s1 [Example 0836]
Physical data: logP: 3.17

O=C(/C=C/c1c(-c2cccc(C(F)(F)F)c2)nc2sc(C(F)(F)F)nn12)NC1CC1 [Example 0375]
Physical data: log P: 3.59

CCC(NC(=O)/C=C/c1c(-c2ccc(Cl)cc2)nc2sc(C(F)(F)F)nn12)c1ccccc1 (stereo not drawn) [Example 0039]
Physical data (logP): 4.56

CC(C)(C)c1nn2c(/C=C/C(=O)NC3CCCCC3)c(-c3ccccc3Cl)nc2s1 [Example 0810]
Physical data: logP: 3.79

NC(=O)/C=C/c1c(-c2ccc(Cl)cc2)nc2sc(C(F)(F)F)nn12 [Example 0004]
Physical data (logP): 2.62

O=C(/C=C/c1c(-c2ccc(Cl)cc2)nc2sc(C(F)(F)F)nn12)NC1CC1 [Example 0011]
Physical data (logP): 3.31

CC(C)NC(=O)/C=C/c1c(-c2ccc(Cl)cc2)nc2sc(C(F)(F)F)nn12 [Example 0007]
Physical data (logP): 3.61

O=C(O)/C=C/c1c(-c2ccc(F)cc2Cl)nc2sc(C(F)(F)F)nn12 [VA-9]
Physical data (logP): 2.84

CCN(CC)C(=O)/C=C/c1c(-c2ccc(F)cc2Cl)nc2sc(C(F)(F)F)nn12 [Example 0644]
Physical data: logP: 3.79

CCN(CC)C(=O)/C=C/c1c(-c2ccc(OC)c(OC)c2)nc2sc(C(F)(F)F)nn12 [Example 0716]
Physical data: logP: 3.53

O=C(/C=C/c1c(-c2ccccc2Cl)nc2sc(-c3ccc(C(F)(F)F)cc3)nn12)NC1CCC1 [Example 0852]
Physical data: logP: 4.21

Cc1ccccc1-c1nc2sc(C(F)(F)F)nn2c1/C=C/C(=O)NC(C)(C)C [Example 0231]
Physical data: log P: 3.85

O=C(/C=C/c1c(-c2ccc(Cl)cc2)nc2sc(C(F)(F)F)nn12)NC1CCCCC1 [Example 0014]
Physical data (logP): 4.37

CCCC(C)NC(=O)/C=C/c1c(-c2ccc(Cl)cc2)nc2sc(C(F)(F)F)nn12 (stereo not drawn) [Example 0017]
Physical data (logP): 4.32

CC(C)(C)c1nn2c(/C=C/C(=O)Nc3ccc(Cl)cc3)c(-c3ccccc3Cl)nc2s1 [Example 0811]
Physical data: logP: 4.72

COCC(C)NC(=O)/C=C/c1c(-c2cccc(Cl)c2)nc2sc(C(F)(F)F)nn12 (stereo not drawn) [Example 0089]
Physical data (logP): 3.46

CC(COc1ccccc1)NC(=O)/C=C/c1c(-c2ccc(Cl)cc2)nc2sc(C(F)(F)F)nn12 (stereo not drawn) [Example 0043]
Physical data (logP): 4.51

O=C(/C=C/c1c(-c2ccc(Cl)cc2)nc2sc(C(F)(F)F)nn12)NC1CCC1 [Example 0012]
Physical data (logP): 3.81

CC(ONC(=O)/C=C/c1c(-c2ccccc2Cl)nc2sc(C(F)(F)F)nn12)c1ccccc1 (racemic) [Example 0213]
Physical data (logP): 3.72

COc1ccc(-c2nc3sc(C(F)(F)F)nn3c2/C=C/C(=O)NOCC2CC2)cc1OC [Example 0706]
Physical data: logP: 2.88

CC(C)NC(=O)/C=C/c1c(-c2cccc(C(F)(F)F)c2)nc2sc(C(F)(F)F)nn12 [Example 0371]
Physical data: log P: 3.85

CCC(NC(=O)C=Cc1c(-c2cccc(C(F)(F)F)c2)nc2sc(C(F)(F)F)nn12)c1ccccc1 (stereo not drawn) [Example 0403]
Physical data: log P: 4.72

O=C(/C=C/c1c(-c2ccccc2F)nc2sc(C(F)(F)F)nn12)N1CCCCC1 [Example 0506]
Physical data: log P: 3.59

O=C(/C=C/c1c(-c2ccc(Cl)cc2)nc2sc(C(F)(F)F)nn12)NC1CCCC1 [Example 013]
Physical data (logP): 4.03

O=C(/C=C/c1c(-c2ccc(Cl)cc2)nc2sc(C(F)(F)F)nn12)N1CCCCC1 [Example 0071]
Physical data (logP): 4.31

O=C(/C=C/c1c(-c2ccccc2Cl)nc2sc(C(F)(F)F)nn12)NCCc1ccc(Cl)cc1 [Example 0199]
Physical data (logP): 4.09

Cc1csc2nc(-c3ccccc3Cl)c(/C=C/C(=O)NCCC(C)C)n12 [Example 0886]
Physical data: logP: 2.75

Cc1ccccc1-c1nc2sc(C(F)(F)F)nn2c1/C=C/C(=O)O [VA-5]
Physical data (logP): 2.77

Cc1csc2nc(-c3ccccc3Cl)c(/C=C/C(=O)NCC(F)(F)F)n12 [Example 0888]
Physical data: logP: 2.36

O=C(/C=C/c1c(-c2cccc(C(F)(F)F)c2)nc2sc(C(F)(F)F)nn12)NCC1CC1 [Example 0379]
Physical data: log P: 3.94

CCC(NC(=O)C=Cc1c(-c2ccccc2Cl)nc2sc(C(F)(F)F)nn12)C1CCCCC1 (stereo not drawn) [Example 0196]
Physical data (logP): 4.82

C[Si](C)(C)CNC(=O)/C=C/c1c(-c2ccc(F)cc2Cl)nc2sc(C(F)(F)F)nn12 [Example 0914]
Physical data: logP: 4.10

O=C(/C=C/c1c(-c2ccc(F)cc2)nc2sc(C(F)(F)F)nn12)NCC1CC1 [Example 0308]
Physical data: log P: 3.33
